Data on two molecules can be found in patent US20250114383A1, “ADMINISTRATION OF A P[…] BY I[…]” (RESET PHARMACEUTICALS, INC., priority 2022, published 2025).

Series [1] is described as follows: Two-compartment IV PK model fitted to published human bolus psilocybin IV data. Particulars: psilocin after 1 mg psilocybin IV, fitted estimate. As for the experimental part: All analysis was performed using the software R and RStudio, with models being defined using analytical and ODE solutions.
Systemic PK parameters were derived for published human bolus psilocybin IV data and human infusion simulations were performed over a range of doses to identify infusion regimens that achieved the target profile.
Human IV PK data for psilocin after psilocybin was administered was taken from Hasler et al. “Determination of psilocin and 4-hydroxyindole-3-acetic acid in plasma by HPLC-ECD and pharmacokinetic profiles of oral and intravenous psilocybin in man”. Pharm Acta Helv. 1997 June; 72(3):175-84. Model selection was performed by assessing visual fit to data and the respective model AIC's of a one compartment and two compartment IV PK model. These systemic human PK parameters were then used for human infusion simulations by simulating the PK profiles over a range of doses. The effect of two infusion rates, a faster followed by slower infusion rate was also investigated.
Pharm Acta Helv. 1997 June; 72(3):175-84. It is assumed that the generation of psilocin is instantaneous and complete once psilocybin is absorbed.
An IV two compartment model best described the IV data from FIG. 2. A two-compartment model gave a good description of the raw data capturing the Cmax and terminal phase well, FIG. 3. […]

Series [2] can be described thus: Solubility assessment in excipients and vehicles. It is filed as physicochemical.

Take `CN(C)CCc1c[nH]c2cccc(O)c12` [psilocin, 4-hydroxy-N,N-dimethyltryptamine]: in series [1], the k12 was 0.176 min⁻¹ and the k21 was 0.0489 min⁻¹. Besides, the solubility result in series [2] (in DMSO and NMP) is listed as “good solubility”. Moreover, in series [2] (initial trials, 30 mg/g in aqueous vehicles), the “solubility as a function of pH” value is recorded as “higher solubility at acidic pH”.

In the case of `CN(C)CCc1c[nH]c2cccc(OP(=O)(O)O)c12` [psilocybin, [3-(2-dimethylaminoethyl)-1H-indol-4-yl]dihydrogen phosphate], the solubility entry in series [2] (non-micronised, in all the excipients tested) is listed as “poor solubility”.
